“And” between values parts separate entries of the source, which are not always exact repeats. Equal values may be shown once.
Experiments:
[1] = system: NAP1 Clostridium difficile strain
[2] = system: Enterococcus faecalis EFS.312, Daptomycin resistant mutant (EFA); format: cell-based; details: MHBc with 50 mg/L calcium, 18-20 hours at 37° C.
Method in brief: (§1)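 CLSI M7-A7 broth microdilution, modified: MHB + 50 mg/L Ca, 5×10^5 bacteria/well, 2-fold dilutions, DMSO ≤1%, 18-20 h, 37° C, 200 rpm. Growth = visible turbidity or OD600 ≥0.1; MIC = lowest conc. without visible turbidity, μg/mL.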

[3] = system: Staphylococcus aureus SAU.278, Daptomycin resistant mutant (D10); format: cell-based; details: MHBc with 50 mg/L calcium, 18-20 hours at 37° C.
Method in brief: as §1

[4] = system: Enterococcus faecium EFM.384, Daptomycin resistant mutant (14-A); format: cell-based; details: MHBc with 50 mg/L calcium, 18-20 hours at 37° C.
Method in brief: as §1

[5] = system: daptomycin resistant Staph. aureus (DRSA), daptomycin resistant E. faecium (DREfm) and daptomycin resistance E. faecalis (DREfs); assay: Activity against daptomycin resistant bacteria, summary statement; format: cell-based; details: statement in words
Experimental: (§2) Compounds according to Formula I were tested for antimicrobial activity against a panel of organisms. Aerobic organisms, Staphylococcus aureus, Enterococcus faecalis and E. faecium, were tested by broth microdilution according to Clinical and Laboratory Standards Institute (CLSI) document M7-A7 (Clinical and Laboratory Standards Institute. Methods for Dilution Antimicrobial Susceptibility Tests for Bacteria that Grow Aerobically; Approved Standard—Seventh Edition. CLSI document M7-A7 [ISBN 1-56238-587-9]. Clinical and Laboratory Standards Institute, 940 West Valley Road, Suite 1400, Wayne, Pa. 19087-1898 USA, 2006) with modifications as described below. Mueller Hinton Broth (MHBc) was supplemented with 50 mg/L calcium (equivalent to human physiological levels of calcium) and assay plates were incubated 18-20 hours at 37° C. with aeration (200 rpm).
(§3) In all cases the final concentration of dimethyl sulfoxide incubated with cells is less than or equal to 1%. For minimum inhibitory concentration (MIC) calculations, 2-fold dilutions of compounds were added to wells of a microtiter plate containing 5×10^5 bacteria in a final volume of 100 μL of media. Following incubation, (18-20 hours at 37° C. with aeration at 200 rpm) growth was confirmed visually by placing plates over a viewing apparatus (stand with a mirror underneath) and then the optical density (OD600) was measured using a SpectraMax 340PC^384 plate reader. Growth was defined as turbidity that could be detected with the naked eye or achieving minimum OD600of 0.1. MIC values (in μg/mL) were defined as the lowest concentration producing no visible turbidity.

[6] = system: gram positive bacteria; assay: Antimicrobial activity against a panel of organisms, summary statements; format: cell-based; details: statement in words
Experimental: as §2, §3

[7] = system: C. difficile spores (ATCC #43596); assay: Hamster C. difficile infection (CDAD) protection model; format: in vivo, Syrian golden hamsters; details: oral 0.5 mg/kg once daily for 5 days (MET 70 mg/kg three times daily for 5 days)
[8] = system: Staphylococcus aureus SAU.399 (ATCC 43300), Methicillin and Oxacillin Resistant; format: cell-based; details: MHBc with 50 mg/L calcium, 18-20 hours at 37° C.
Method in brief: as §1

[9] = system: Staphylococcus aureus SAU.42 (ATCC 29213); format: cell-based; details: ATCC 29213
Method in brief: as §1

[10] = system: Enterococcus faecalis EFS.201 (ATCC 49452); format: cell-based; details: ATCC 49452
Method in brief: as §1

| SMILES | C. diff MIC50 Nap-1 [1] [µg/mL] | C. diff MIC90 Nap-1 [1] [µg/mL] | Efs312 MIC [2] | Sa278 MIC [3] [µg/mL] | Efm384 MIC [4] | useful against daptomycin resistant strains of bacteria [5] | as active or more active than daptomycin [6] | more active against bacteria than daptomycin [6] | Mean % Protection 1 Day Post Dosing ([7]; 1 day post-dosing) [%] | Mean % Protection 21 Days Post Dosing ([7]; 21 days post-dosing) [%] | Sa399 MIC [8] [µg/mL] | Sa42 MIC [9] [µg/mL] | Efs201 MIC [10] [µg/mL] |
| --- | --- | --- | --- | --- | --- | --- | --- | --- | --- | --- | --- | --- | --- |
| CCCCCc1ccc(/C(C)=C/C(=O)N[C@@H](Cc2c[nH]c3ccccc23)C(=O)N[C@H](CC(N)=O)C(=O)N[C@@H](CC(=O)O)C(=O)N[C@@H]2C(=O)NCC(=O)N[C@@H](CCCN)C(=O)N[C@@H](CC(=O)O)C(=O)N[C@H](C)C(=O)N[C@@H](CC(=O)O)C(=O)NCC(=O)N[C@H](CO)C(=O)N[C@@H]([C@H](C)CC(=O)O)C(=O)N[C@@H](CC(=O)c3ccccc3N)C(=O)O[C@@H]2C)cc1 [Compound 49, N-{1-[(E)-3-(4-pentylphenyl)but-2-enoyl]}-L-tryptophyl-D-asparaginyl-L-α-aspartyl-L-threonylglycyl-L-ornithyl-L-α-aspartyl-D-alanyl-L-α-aspartylglycyl-D-seryl-(3R)-3-methyl-L-α-glutamyl-(αS)-α,2-diamino-γ-oxobenzenebutanoic acid (13→4)-lactone] | 0.25 | 0.50 | 8 µg/mL and 4 µg/mL | 1 | 4 µg/mL |  |  |  |  |  |  |  |  |
| CCCCCCCc1ccc(C(=O)N[C@@H](Cc2c[nH]c3ccccc23)C(=O)N[C@H](CC(N)=O)C(=O)N[C@@H](CC(=O)O)C(=O)N[C@@H]2C(=O)NCC(=O)N[C@@H](CCCN)C(=O)N[C@@H](CC(=O)O)C(=O)N[C@H](C)C(=O)N[C@@H](CC(=O)O)C(=O)NCC(=O)N[C@H](CO)C(=O)N[C@@H]([C@H](C)CC(=O)O)C(=O)N[C@@H](CC(=O)c3ccccc3N)C(=O)O[C@@H]2C)cc1 [Compound 33, N-(4-heptylbenzoyl)-L-tryptophyl-D-asparaginyl-L-α-aspartyl-L-threonylglycyl-L-ornithyl-L-α-aspartyl-D-alanyl-L-α-aspartylglycyl-D-seryl-(3R)-3-methyl-L-α-glutamyl-(αS)-α,2-diamino-γ-oxobenzenebutanoic acid (13→4)-lactone] |  |  |  |  | 4 µg/mL and 2 µg/mL | useful against daptomycin resistant strains of bacteria | as active or more active than daptomycin | more effective than daptomycin | 85 | 69 | 0.125 | 0.25 | 0.5 |
